Source: US20100233096A1, “METHOD TO PRODUCE HYPERPOLARISED CARBOXYLATES AND SULPHONATES” (priority 2006, published 2010)

Experiments:
[1] = T1 relaxation in human full blood; assay type: physicochemical; settings: human full blood at 37° C.
Text: The amount of alanine, bicarbonate and lactate is dependent on the metabolic status of the tissue under investigation.

[2] = compared with NH4-acetate or Ca-acetate; solubility data available in the literature; cited from earlier work

| Structure (SMILES) | T1 relaxation [1] | solubility in water [2] |
| --- | --- | --- |
| CC(=O)[13C](=O)O [^13C-pyruvate] | about 42 s | – |
| CC(=O)[O-].[Cs+] [Cs-acetate] | – | higher solubility in water |
